Test results published in the OPERA property sets (Mansouri et al. 2018).

Conditions: not given

SMILES | melting point | log10 Koa | log10 vapour pressure (mmHg) | boiling point | log10 Henry constant (atm·m³/mol) | ready biodegradability | log10 Koc (L/kg) | log10 biodegradation half-life (days)
CCCN(CCC)C(=O)COC(=O)c1ccccc1 | 20 °C |  |  |  |  |  |  | 
Clc1cc2oc3c(Cl)c(Cl)c(Cl)cc3c2cc1Cl | 196 °C | 10.4 | -8.58 |  |  |  |  | 
C=CCCCCCCCCCCCCC | -2.8 °C |  | -2.34 | 268 °C |  |  |  | 
CC(C)[C@@H](C)/C=C/[C@@H](C)[C@H]1CC[C@H]2C3=CC=C4C[C@@H](O)CC[C@]4(C)[C@H]3CC[C@]12C | 127 °C |  |  |  |  |  |  | 
Oc1ccccc1C(F)(F)F | 45.5 °C |  |  | 148 °C |  |  |  | 
Brc1cccc2c1Oc1ccccc1O2 | 104 °C |  | -4.58 |  |  |  |  | 
CC[B]CC | -56.3 °C |  |  | 112 °C |  |  |  | 
CCOP(=S)(OCC)OP(=S)(OCC)OCC |  |  | -3.98 |  |  |  |  | 
C[Si]1(C)O[Si](C)(C)O[Si](C)(C)O[Si](C)(C)O[Si](C)(C)O[Si](C)(C)O[Si](C)(C)O1 | -26 °C |  | -1.95 |  |  |  |  | 
FC(F)(Cl)Cl | -158 °C |  | 3.69 | -29.8 °C | -0.465 | not readily biodegradable |  | 
COc1ccccc1 | -37.5 °C | 4.01 | 0.549 | 154 °C |  | readily biodegradable | 1.54 | 
CCCCCCCCCO |  |  |  |  |  | readily biodegradable |  | 
O=Cc1ccnc2ccccc12 | 51 °C |  |  |  |  |  |  | 
CNC[C@H](O)c1cccc(O)c1.Cl | 142 °C |  |  |  |  |  |  | 
CCC(CC)CC | -119 °C |  | 1.76 | 93.5 °C |  |  |  | 0.602
NCCCN1CCOCC1 | -15 °C |  |  | 220 °C |  |  |  | 
CCCCOC(=O)COc1ccc(Cl)cc1Cl |  |  | -4.21 |  |  |  |  | 
CC(=O)C=NO | 69 °C |  |  |  |  |  |  | 
NC(=O)Nc1ccccc1F |  |  |  |  |  |  | 1.32 | 
OCCCCCCCCCCO | 74 °C |  |  |  |  |  |  | 
CCCCC(C(=O)O)C(=O)N(Nc1ccccc1)c1ccccc1 (stereo not drawn) | 116 °C |  |  |  |  |  |  | 
Cc1cccc(C)c1Br |  |  |  | 204 °C |  |  |  | 
Cc1cc(F)ccc1N | 14.2 °C |  |  |  |  |  |  | 
ClC(Cl)=C(Cl)C(Cl)=C(Cl)Cl | -21 °C |  | -0.658 | 215 °C | -1.99 | not readily biodegradable |  | 
Cc1cc(C)c(S(=O)(=O)Cl)c(C)c1 | 56 °C |  |  |  |  |  |  | 
CCCCCCOC(C)=O | -80.9 °C | 4.58 | 0.122 | 172 °C | -3.28 |  |  | 

SMILES | melting point | log10 Koa | log10 vapour pressure (mmHg) | boiling point | log10 Henry constant (atm·m³/mol) | ready biodegradability | log10 Koc (L/kg) | log10 biodegradation half-life (days)
C=CCOC(=O)c1ccco1 |  |  |  | 208 °C |  |  |  | 
O=C(O)CCCCCCCC(=O)O | 106 °C |  | -7.97 |  |  |  |  | 
CC(CC1CCCCC1)CC1CCCCC1 | 0.6 °C |  |  | 295 °C |  |  |  | 
S=c1sc2nc3ccccc3nc2s1 | 180 °C |  |  |  |  |  |  | 
CCCCC(=O)OC(=O)CCCC | -56.1 °C |  |  | 227 °C |  |  |  | 
COc1ccc2c(c1)c(CC(=O)O)c(C)n2C(=O)/C=C/c1ccccc1 | 170 °C |  |  |  |  |  |  | 
O=C(O)C(=O)Nc1ccccc1 | 150 °C |  |  |  |  |  |  | 
CCCCCCCCCCCCCCCC(=O)O | 61.8 °C |  | -6.42 | 352 °C |  | readily biodegradable |  | 
Cc1ccc(S(N)(=O)=O)cc1 | 138 °C |  |  |  |  | not readily biodegradable |  | 
Nc1ccc(Br)cc1Br | 79.5 °C |  |  |  |  |  |  | 
O=C(O)CCCCCCCCCCBr | 57 °C |  |  |  |  |  |  | 
CC1=CCCC=C1 |  |  |  | 108 °C |  |  |  | 
CC(=O)C[C@H](C)O |  |  |  | 177 °C |  |  |  | 
N#Cc1ccc(N)cc1 | 84 °C |  |  |  |  |  |  | 
CN(C)C(=O)NC1CCCCCCC1 | 138 °C |  |  |  |  |  |  | 
CCCCC(=O)OCc1ccco1 |  |  |  | 228 °C |  |  |  | 
O=C(NCN1CCOCC1)c1cnccn1 | 118 °C |  |  |  |  |  |  | 
CCCCCCCCCCOC(=O)CCCCCCCCC | 9.7 °C |  |  |  |  |  |  | 
C=CCOC(=O)OCCOCCOC(=O)OCC=C | -4 °C |  |  |  |  | readily biodegradable |  | 
CC(=O)Nc1ccccc1-c1ccccc1 | 121 °C |  |  | 355 °C |  |  |  | 
CC(C)N1C(=O)N(c2ccccc2)CSC1=NC(C)(C)C | 105 °C |  | -5.03 |  |  |  |  | 
CCCCCCCc1ccccc1 | -48 °C |  | -1.51 | 240 °C |  |  |  | 
O=C(OCC(=O)N1CCCCCC1)c1ccccc1 | 108 °C |  |  |  |  |  |  | 
CCCCCCCCCCCCCCCCCCBr | 28.2 °C |  | -5.23 |  |  |  |  | 
CCCCN=C=S |  |  |  | 168 °C |  |  |  | 
O=C(OCC(=O)N1CCC[C@H]1C(=O)O)c1ccccc1 | 116 °C |  |  |  |  |  |  | 

SMILES | melting point | log10 Koa | log10 vapour pressure (mmHg) | boiling point | log10 Henry constant (atm·m³/mol) | ready biodegradability | log10 Koc (L/kg) | log10 biodegradation half-life (days)
CC[Si](Cl)(Cl)CC | -96.5 °C |  |  |  |  |  |  | 
COC(=O)c1c(C)cc(OC(=O)c2c(C)cc(O)c(C=O)c2O)c(C)c1O | 195 °C |  |  |  |  |  |  | 
Clc1ccc(OCOc2ccc(Cl)cc2)cc1 | 70.5 °C |  |  |  |  |  |  | 
CC(C)(C)C(=O)OCOC(=O)[C@@H]1N2C(=O)[C@@H](N=CN3CCCCCC3)[C@H]2SC1(C)C | 119 °C |  |  |  |  |  |  | 
C[C@@H]1CCC[C@H]1O |  |  |  | 150 °C |  |  |  | 
C[C@H](CCC(=O)O)[C@H]1CC[C@H]2[C@@H]3C(=O)C[C@@H]4CC(=O)CC[C@]4(C)[C@H]3CC(=O)[C@]12C | 237 °C |  |  |  |  |  |  | 
Cc1cnc(Cl)nc1Cl | 26 °C |  |  | 235 °C |  |  |  | 
N#CC1CCC1 |  |  |  | 150 °C |  |  |  | 
CCc1nn(CCCN2CCN(c3cccc(Cl)c3)CC2)c(=O)n1CCOc1ccccc1 | 83.5 °C |  |  |  |  |  |  | 
Cc1ccc2[nH]ccc2c1 | 60 °C |  |  | 267 °C |  |  |  | 
O=[N+]([O-])c1ccccc1Sc1ccccc1 | 82 °C |  |  |  |  |  |  | 
O=C(O)Cc1cccc(O)c1 | 132 °C |  |  |  |  |  |  | 
CCCC(=O)Oc1c(Br)cc(C#N)cc1Br |  |  |  |  |  |  | 3.03 | 
CC1C=CCCC1 (stereo not drawn) |  |  | 1.54 | 103 °C |  |  |  | 
CCN(CC)CCN(CC)CC |  |  |  | 192 °C |  |  |  | 
C#CCCCCCCCC#C | -17 °C |  |  |  |  |  |  | 
O=C1CCCCC1=O | 40 °C |  |  | 194 °C |  |  |  | 
CC(=O)C(=O)c1ccccc1 |  |  |  | 222 °C |  |  |  | 
CC(=O)Nc1ccccc1C | 110 °C |  |  | 296 °C |  |  |  | 
COc1ccc(C=O)cc1O | 114 °C |  |  |  |  |  |  | 
CCCCCCCCOC(=O)CC | -42.6 °C |  |  | 228 °C |  |  |  | 
CS(=O)(=O)c1ccc([C@@H](O)[C@@H](CO)NC(=O)C(Cl)Cl)cc1 | 165 °C |  |  |  |  |  |  | 
CC1(C)[C@H](/C=C2\CCSC2=O)[C@@H]1C(=O)OCc1coc(Cc2ccccc2)c1 | 31 °C |  |  |  |  |  |  | 
CCN(CC)c1cccc(O)c1 | 78 °C |  |  | 276 °C |  |  |  | 
O=C(O)c1ccccc1C(c1ccc(O)cc1)c1ccc(O)cc1 | 230 °C |  |  |  |  |  |  | 
Cc1cc(Cl)ccc1O[C@H](C)C(=O)O |  |  | -5.58 |  |  |  |  | 

SMILES | melting point | log10 Koa | log10 vapour pressure (mmHg) | boiling point | log10 Henry constant (atm·m³/mol) | ready biodegradability | log10 Koc (L/kg) | log10 biodegradation half-life (days)
Clc1ccc(-c2ccccc2)cc1 | 78.8 °C | 6.8 | -1.98 | 293 °C | -3.24 | readily biodegradable |  | 
CC(C)CCC[C@@H](C)[C@H]1CC[C@@H]2[C@@H]3CC[C@H]4CCCC[C@]4(C)[C@H]3CC[C@@]21C | 76 °C |  |  |  |  |  |  | 
CC=CCCc1ccccn1 |  |  |  | 216 °C |  |  |  | 
Fc1nc(F)nc(F)n1 | -38 °C |  |  | 72.8 °C |  |  |  | 
COC(=O)C1(S(=O)(=O)c2ccc(Cl)cc2)CCC1 | 76.2 °C |  |  |  |  |  |  | 
COc1ccccc1N=Nc1ccccc1 | 41 °C |  |  |  |  |  |  | 
Fc1c(F)c(F)c(Br)c(F)c1F | -31 °C |  | 0.903 | 137 °C |  |  |  | 
CCCCCCS | -81 °C |  | 0.624 | 151 °C |  |  |  | 
COc1cc2c(c3oc(=O)c4c(c13)CCC4=O)[C@@H]1CCO[C@@H]1O2 | 288 °C |  |  |  |  |  |  | 
CC(=O)c1ccc(C(C)=O)cc1 | 112 °C |  |  |  |  |  |  | 
CCOCCOC(=O)C(C)Oc1ccc(Oc2ncc(C(F)(F)F)cc2Cl)cc1 (stereo not drawn) | 60 °C |  | -10.9 |  |  |  |  | 
c1ccc2[nH]c(-c3cscn3)nc2c1 | 300 °C |  | -8.4 |  |  |  | 3.24 | 
CCC1CCC(=O)CC1 |  |  |  | 193 °C |  |  |  | 
CCCCCc1cc(O)c2c(c1)OC(C)(C)c1ccc(C)cc1-2 | 77 °C |  |  |  |  | readily biodegradable |  | 
O=C1c2ccccc2C(=O)c2c1ccc([N+](=O)[O-])c2[N+](=O)[O-] | 341 °C |  | -11.2 |  |  |  |  | 
O[C@H](CS)[C@H](O)CS | 62.8 °C |  |  |  |  |  |  | 
NC(=O)OCCCl | 75.5 °C |  |  |  |  |  |  | 
CCCCOCC(C)O (stereo not drawn) |  |  |  | 172 °C |  | readily biodegradable |  | 
C=C(C)CCCCC | -90 °C |  | 1.3 | 119 °C |  |  |  | 
O=C(O)c1cc2ccccc2[nH]1 | 206 °C |  |  |  |  |  |  | 
N#Cc1cccc(C#N)c1 | 162 °C |  |  |  |  | not readily biodegradable |  | 
CCS | -148 °C |  | 2.72 | 35.1 °C | -2.34 |  |  | 
N[C@H](Cc1ccccc1)c1ccccc1 |  |  |  | 311 °C |  |  |  | 
N#CCCOc1cccc2ccccc12 | 64 °C |  |  |  |  |  |  | 

Same assay, conditions: fish

SMILES | log10 BCF | log10 biotransformation half-life (days)
Clc1cc2oc3c(Cl)c(Cl)c(Cl)cc3c2cc1Cl | 4.13 | 1.36
C[Si]1(C)O[Si](C)(C)O[Si](C)(C)O[Si](C)(C)O[Si](C)(C)O[Si](C)(C)O[Si](C)(C)O1 |  | 1.48
FC(F)(Cl)Cl | 0.79 | 
CCCCC(CC)COC(=O)CC(C(=O)OCC(CC)CCCC)S(=O)(=O)O (stereo not drawn) | 0.97 | 
ClC(Cl)=C(Cl)C(Cl)=C(Cl)Cl | 3.82 | 2.07
Clc1cc(Cl)c(Cl)c(-c2c(Cl)c(Cl)c(Cl)c(Cl)c2Cl)c1Cl |  | 2.63
N#Cc1cccc(C#N)c1 | 0.75 | -0.62
